Laboratory results published in US20250034169A1, “NOVEL PYRIMIDOPYRIDINE COMPOUND, PHARMACEUTICAL COMPOSITION THEREOF, AND USE THEREOF” (SUNSHINE LAKE PHARMA CO., LTD., priority 2021, published 2025).
Like-named read-outs stand apart in the source and are kept apart here.

How the values were obtained:
intracellular pERK = assay: Inhibitory effect on intracellular pERK, In-Cell Western, AGS cells; assay type: cell-based; conditions: Homo sapiens, read-out: Inhibitory effect on intracellular pERK, IC50
[1] = Stability in human liver microsomes; assay type: in vitro ADME; conditions: 1 μM; for CLHep / predicted in vivo clearance / ER: human liver microsomes; for ER: slow ER < 0.3, moderate 0.3 < ER < 0.7, fast ER > 0.7; for microsomal CLint at 1 μM / half-life at 1 μM: pH 7.4, human liver microsomes 0.5 mg/mL, 37° C.; for microsomal CLint at 1 μM: read-out: CLint; for half-life at 1 μM: read-out: T1/2
Description: (§1) Objective: To evaluate the stability of the compounds of the present invention in human and mouse liver microsomes by LC-MS/MS.
(§2) The ratio of the sample peak area to the internal standard peak area was obtained by LC/MS/MS, and the content of the compounds at 0 min was regarded as 100%, and the relative content of the compounds at each time point was calculated. The half-life of the compound was calculated by plotting the “relative content of the compound” against the “incubation time”, and the intrinsic clearance was calculated, in which the half-life and intrinsic clearance of the compound in human and mouse liver microsomes were determined in Table 3 and Table 4, respectively.

[2] = Stability in mouse liver microsomes; assay type: in vitro ADME; conditions: 1 μM; for CLHep / CLin vivo / ER: mouse liver microsomes; for ER: slow ER < 0.3, moderate 0.3 < ER < 0.7, fast ER > 0.7; for microsomal CLint at 1 μM / half-life at 1 μM: pH 7.4, mouse liver microsomes 0.5 mg/mL, 37° C.; for microsomal CLint at 1 μM: read-out: CLint; for half-life at 1 μM: read-out: T1/2
Description: as §1, §2

in vivo = assay: in vivo; design: species or system BALB/c mice; conditions: BALB/c, mouse, 2 mg/kg
Description: The inventors performed a pharmacokinetic evaluation of the compounds of the present invention in mice.
The compound of the present invention was in the form of a solution of 5% DMSO+30% PEG400+65% Saline, 10% DMSO+10% Kolliphor HS15+80% Saline, 10% DMSO+89%(25% SBE-B-CD)+(2% HCl), 20% PEG400+80% sterilize water for injection or 10% DMA+10% HS15+30% PEG400+50% sterilize water for injection, the test animals were administered, and the animals were fasted for 12 h before administration, and water was free to drink. The test animals were administered intravenously at a dose of 2 mg/kg, blood (approximately 0.15 mL) was taken intravenously at the following time points after administration: 0.083 h, 0.25 h, 0.5 h, 1.0 h, 2.0 h, 5.0 h, 7.0 h, and 24 h, EDTA-K2 was pre-added as an anticoagulant in the blood collection tube, the blood samples were centrifuged at 12,000 rpm for 2 min, then plasma was collected and stored at −20° C. or −70° C.
The plasma samples collected above were treated (after the frozen plasma thawed at room temperature, vortexed for 15 s for mixing, 10-20 μL of plasma was taken and added with 120-150 μL of acetonitrile solution containing internal standard, the mixture was vortexed for 5 min for mixing, then centrifuged at 4,000 rpm for 5 min, 100 μL of supernatant was taken, and 120-150 μL of methanol/water (v/v=1/1) was added to mix), and the compound concentration in plasma was analyzed by LC-MS/MS. The pharmacokinetic parameters of the compounds of the present invention for intravenous administration in mice are shown in Table 5.

KRAS G12D-GTP & cRAF = KRAS G12D-GTP & cRAF (Homo sapiens (Human), UniProt P01116, G12D); assay: KRAS G12D/cRAF binding experiment (HTRF); conditions: competitive binding
Sequence of KRAS G12D-GTP & cRAF (P01116-2 other isoform, or with tags, fused parts or gaps G12D): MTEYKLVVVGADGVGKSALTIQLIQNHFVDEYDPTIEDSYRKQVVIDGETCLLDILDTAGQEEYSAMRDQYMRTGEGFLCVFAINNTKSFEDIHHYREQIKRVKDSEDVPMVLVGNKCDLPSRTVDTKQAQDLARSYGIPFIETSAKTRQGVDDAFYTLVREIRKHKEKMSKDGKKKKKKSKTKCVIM

KRAS G12D-GTP & SOS1 = KRAS G12D-GTP & SOS1 (Homo sapiens (Human), UniProt P01116, G12D); assay: KRAS G12D/SOS1 binding experiment (HTRF); conditions: competitive binding
Sequence of KRAS G12D-GTP & SOS1 (P01116-2 other isoform, or with tags, fused parts or gaps G12D): as above

**Q.** Which IC50 (intracellular pERK; AGS, 3 h) does the source give for C#Cc1c(F)ccc2cc(O)cc(-c3nc(C#C)c4c(N5CC6CCC(C5)N6)nc(OC[C@@]56CCCN5C[C@H](F)C6)nc4c3F)c12 [Compound 23] here?
**A.** The IC50 was 0.6 nM.

**Q.** And the CLHep [1]?
**A.** Its CLHep is 23.0 mL/min/kg.

**Q.** And the “predicted in vivo clearance” value [1]?
**A.** The value was 10.9 mL/min/kg.

**Q.** What about the ER [1] of the same molecule?
**A.** Its ER is 0.53.

**Q.** And the microsomal CLint at 1 μM [1]?
**A.** The microsomal CLint at 1 μM was 18.4 µL/min/mg.

**Q.** What about the half-life at 1 μM [1] of the same molecule?
**A.** Its half-life at 1 μM is 75.3 min.

**Q.** And the CLHep [2]?
**A.** The CLHep was 187.4 mL/min/kg.

**Q.** And the CLin vivo [2]?
**A.** The CLin vivo was 60.8 mL/min/kg.

**Q.** And the ER [2]?
**A.** The ER was 0.68.

**Q.** What about the microsomal CLint at 1 μM [2] of the same molecule?
**A.** Its microsomal CLint at 1 μM is 47.6 µL/min/mg.

**Q.** What about the half-life at 1 μM [2] of the same molecule?
**A.** Its half-life at 1 μM is 29.1 min.

**Q.** And the AUC(0-inf) (in vivo; mice, intravenous, read-out: AUCINF)?
**A.** Its AUC(0-inf) is 2160 ng·h/mL.

**Q.** And the AUC(0-t) (in vivo; mice, intravenous, read-out: AUClast)?
**A.** The AUC(0-t) was 2140 ng·h/mL.

**Q.** And the clearance (in vivo; mice, intravenous, read-out: Cl)?
**A.** Its clearance is 16 mL/min/kg.

**Q.** And the Cmax (in vivo; mice, intravenous, read-out: Cmax)?
**A.** Its Cmax is 3550 ng/mL.

**Q.** And the MRT last (in vivo; mice, intravenous, read-out: MRTlast)?
**A.** The MRT last was 42 min.

**Q.** And the half-life (in vivo; mice, intravenous, read-out: T1/2 (converted))?
**A.** The half-life was 50.4 min.

**Q.** And the Tmax (in vivo; mice, intravenous, read-out: Tmax)?
**A.** The Tmax was 4.98 min.

**Q.** And the Vd (in vivo; mice, intravenous, read-out: Vss)?
**A.** Its Vd is 0.69 L/kg.

**Q.** With C#Cc1nc(-c2cc(O)cc3cccc(Cl)c23)c(F)c2nc(OC[C@@]34CCCN3C[C@H](F)C4)nc(N3CC4CCC(C3)N4)c12 [Compound 67] as the molecule, how does the IC50 (intracellular pERK; AGS cells, 3 h incubation, In-Cell Western) read?
**A.** The IC50 was 0.4 nM.

**Q.** And the IC50 (KRAS G12D-GTP & cRAF)?
**A.** Its IC50 is 5.4 nM.

**Q.** What about the CLHep [1] of the same molecule?
**A.** Its CLHep is 14.5 mL/min/kg.

**Q.** What about the “predicted in vivo clearance” value [1] of the same molecule?
**A.** The value was 8.5 mL/min/kg.

**Q.** And the ER [1]?
**A.** Its ER is 0.41.

**Q.** And the microsomal CLint at 1 μM [1]?
**A.** The microsomal CLint at 1 μM was 11.6 µL/min/mg.

**Q.** And the half-life at 1 μM [1]?
**A.** Its half-life at 1 μM is 119 min.

**Q.** And the CLHep [2]?
**A.** Its CLHep is 178.5 mL/min/kg.

**Q.** And the CLin vivo [2]?
**A.** The CLin vivo was 59.8 mL/min/kg.

**Q.** And the ER [2]?
**A.** The ER was 0.66.

**Q.** What about the microsomal CLint at 1 μM [2] of the same molecule?
**A.** The microsomal CLint at 1 μM was 45.3 µL/min/mg.

**Q.** And the half-life at 1 μM [2]?
**A.** The half-life at 1 μM was 30.6 min.

**Q.** And the AUC(0-inf) (in vivo; iv)?
**A.** Its AUC(0-inf) is 3230 ng·h/mL.

**Q.** What about the AUC(0-t) (in vivo; iv) of the same molecule?
**A.** Its AUC(0-t) is 3210 ng·h/mL.

**Q.** What about the Cmax (in vivo; iv) of the same molecule?
**A.** Its Cmax is 4300 ng/mL.

**Q.** And the MRT last (in vivo; iv)?
**A.** Its MRT last is 45 min.

**Q.** What about the Tmax (in vivo; iv) of the same molecule?
**A.** Its Tmax is 4.98 min.

**Q.** And the Vd (in vivo; iv)?
**A.** The Vd was 0.5 L/kg.

**Q.** And the clearance (in vivo; iv)?
**A.** Its clearance is 10 mL/min/kg.

**Q.** What about the half-life (in vivo; iv) of the same molecule?
**A.** The half-life was 52.2 min.

**Q.** And the IC50 (KRAS G12D-GTP & SOS1)?
**A.** Its IC50 is 13.5 nM.
